From patent publication US7612086B2, “JNK inhibitors” (Eisai R & D Management Co. Ltd., priority 2003, dated 2009)

Biological target: JNK3 kinase (Homo sapiens, UniProt P53779)
Assay: JNK3 SPA assay (phosphorylation of GST-c-Jun)
Assay type: biochemical
Conditions: 3.33 μM ATP, [γ-33P] ATP, GST-c-Jun substrate, 30 minutes at room temperature
Description: JNK1, JNK2, JNK3—SPA Assay
• 1. Compound is dissolved in DMSO to a convenient concentration and this is diluted in 10% DMSO to a five times concentrate of the desired starting concentration (frequently 1:100). • 2. 10 μl of 500 mM EDTA is added to alternative wells of the Opti-plate row, which will receive kinase reaction plus DMSO. This creates the negative control. • 3. For the JNK2 and JNK3 assay, compounds are prepared in six 2-fold dilutions with water and each concentration is tested in duplicate. For the JNK1 assay compounds are prepared in four 5-fold dilutions with water which are tested in triplicate. Controls are treated identically. • 4. 20 μl per well of each compound concentration is transferred to an Opti-plate, in duplicate. • 5. 30 μl (JNK2/3 SPA) or 50 μl (JNK1 SPA) of substrate solution (25 mM HEPES pH 7.5, 10 mM magnesium acetate with 3.33 μM ATP (JNK2/3) or 2 μM ATP (JNK1), approximately 7.5 kBq [γ-^33P] ATP, GST-c-Jun, in water) is added to each well. • 6. 50 μl (JNK2/3 SPA) or 30 μl (JNK1 SPA) of kinase solution (JNK in 25 mM HEPES pH 7.5, 10 mM Mg Acetate) is added to each well.
• 7. The plate is incubated for 30 minutes at room temperature. • 8. 100 μl of bead/stop solution is added to each well (5 mg/ml glutathione-PVT-SPA beads, 40 mM ATP in PBS). • 9. Plates are sealed and incubated for 30 minutes at room temperature, centrifuged for 10 minutes at 2500 g and counted. • 10. The IC50 values are calculated as the concentration of the compound being tested at which the phosphorylation of c-Jun is decreased to 50% of the control value.

Chain of JNK3 kinase (P53779 whole entry): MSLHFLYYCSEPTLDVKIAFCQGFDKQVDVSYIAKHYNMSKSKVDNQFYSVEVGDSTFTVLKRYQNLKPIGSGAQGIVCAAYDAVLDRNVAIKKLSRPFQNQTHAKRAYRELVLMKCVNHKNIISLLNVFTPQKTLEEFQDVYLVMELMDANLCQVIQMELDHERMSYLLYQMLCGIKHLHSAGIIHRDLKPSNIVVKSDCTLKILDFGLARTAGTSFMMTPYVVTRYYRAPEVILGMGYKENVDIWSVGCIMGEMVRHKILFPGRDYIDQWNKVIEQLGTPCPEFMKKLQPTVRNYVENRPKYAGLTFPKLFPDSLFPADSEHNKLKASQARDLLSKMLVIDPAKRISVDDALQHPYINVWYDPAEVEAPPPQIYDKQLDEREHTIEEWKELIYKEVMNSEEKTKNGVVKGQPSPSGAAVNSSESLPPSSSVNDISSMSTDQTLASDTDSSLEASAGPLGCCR

IC50 [nM] | SMILES
< 500 | CCCNC(=O)C#Cc1c[nH]c2ncc(-c3ccccc3Oc3ccccc3)cc12
< 500 | N#Cc1c[nH]c2ncc(-c3ccccc3F)cc12
< 500 | CN(C)c1ccc(-c2cnc3[nH]cc(C#N)c3c2)cc1
< 500 | C#Cc1c[nH]c2ncc(-c3ccc(N(C)C)cc3)cc12
